According to patent US10675258B2, “Method of using gamma-hydroxybutyrate compositions for the treatment of disorders” (Jazz Pharmaceuticals Ireland Limited, priority 2012, dated 2020):

Key:
[1] = Maximum solubility of GHB as a function of pH of the aqueous medium; type: physicochemical
Experimental: It will be understood that the maximum solubility of GHB is affected by the pH of the aqueous medium. For example, at about pH 4, the maximum amount of Na•GHB that can be dissolved is about 450 mg/ml.

[2] = Chemical stability of GHB as a function of pH (GBL formation); conditions: aqueous GHB compositions

Structure (SMILES)	minimal pH that will dissolve 750 mg/ml GHB ([1]; 750 mg/ml GHB, aqueous medium)	pH at which GBL begins to form [2]	maximum amount that can be dissolved ([1]; aqueous medium at about pH 4)
O=C(O)CCCO [GHB, gamma-hydroxybutyrate]	~6.8	≤ 6	
O=C([O-])CCCO.[Na+] [Na•GHB, sodium gamma-hydroxybutyrate]			about 450 mg/ml
